Data from patent publication US20100056508A1, “AMINE DERIVATIVES AND THEIR USE IN BETA-2-ADRENORECEPTOR MEDIATED DISEASES” (ASTRAZENECA AB, priority 2006, published 2010).
Structures can show the parent of a compound that is named as a salt.

Experiments:
Adrenergic β2 = biological target: T1, Adrenergic β2 (Homo sapiens, UniProt P07550); assay: Adrenergic β2 mediated cAMP production in H292 cells (AlphaScreen cAMP detection); assay type: cell-based; design: key to β2 Int Act: fraction of formoterol maximum activity (formoterol = 1); conditions: for β2 Int Act: Intrinsic Activity as a fraction relative to the maximum activity determined for formoterol; for EC50: cAMP production, 60 minutes at room temperature, 300 μM rolipram, read-out: β2 pEC50 (converted)
T1 construct: Adherent H292 cells were removed from tissue culture flasks; endogenous in cells; host or cells: H292 cells
Summary of the method: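 H292 cells pre-treated 10 min with rolipram (300 μM final), then given agonist for 60 min at room temperature in HBSS/10 mM HEPES pH 7.4, 1.6% DMSO final. Lysate cAMP measured by AlphaScreen against a cAMP standard curve. Four-parameter fit gives pEC50; intrinsic activity relative to formoterol maximum.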

[1] = biological target: T2, recombinant human adrenergic beta 1 receptors (Homo sapiens, UniProt P08588); assay: Adrenergic β1 selectivity assay, [125I]-Iodocyanopindolol binding to membranes; conditions: inhibition of [125I]-Iodocyanopindolol binding, read-out: β1 bind pIC50 (converted)
T2 construct: purchased Euroscreen
Summary of the method: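 Recombinant human β1 membranes in HEPES buffer pH 7.4 with 120 mM NaCl were incubated 2 hours at room temperature with 0.036 nM [^125I]-Iodocyanopindolol. Nonspecific binding defined by 10 μM propranolol; bound radioactivity counted after filtration. pIC50 from four-parameter logistic fit.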

T2 sequence (P08588 whole entry): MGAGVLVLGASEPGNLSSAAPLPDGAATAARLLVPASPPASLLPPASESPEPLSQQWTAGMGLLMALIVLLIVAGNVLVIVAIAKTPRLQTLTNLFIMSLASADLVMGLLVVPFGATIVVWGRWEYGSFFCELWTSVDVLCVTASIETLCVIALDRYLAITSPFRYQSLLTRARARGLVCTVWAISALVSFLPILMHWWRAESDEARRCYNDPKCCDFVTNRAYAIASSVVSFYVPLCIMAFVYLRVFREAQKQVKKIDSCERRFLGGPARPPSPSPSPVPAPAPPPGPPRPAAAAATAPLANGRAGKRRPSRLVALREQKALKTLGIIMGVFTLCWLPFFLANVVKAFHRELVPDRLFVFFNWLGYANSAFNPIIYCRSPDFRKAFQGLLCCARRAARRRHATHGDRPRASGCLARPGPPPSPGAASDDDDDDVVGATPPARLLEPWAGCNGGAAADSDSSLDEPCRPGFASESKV
T1 sequence (P07550 whole entry): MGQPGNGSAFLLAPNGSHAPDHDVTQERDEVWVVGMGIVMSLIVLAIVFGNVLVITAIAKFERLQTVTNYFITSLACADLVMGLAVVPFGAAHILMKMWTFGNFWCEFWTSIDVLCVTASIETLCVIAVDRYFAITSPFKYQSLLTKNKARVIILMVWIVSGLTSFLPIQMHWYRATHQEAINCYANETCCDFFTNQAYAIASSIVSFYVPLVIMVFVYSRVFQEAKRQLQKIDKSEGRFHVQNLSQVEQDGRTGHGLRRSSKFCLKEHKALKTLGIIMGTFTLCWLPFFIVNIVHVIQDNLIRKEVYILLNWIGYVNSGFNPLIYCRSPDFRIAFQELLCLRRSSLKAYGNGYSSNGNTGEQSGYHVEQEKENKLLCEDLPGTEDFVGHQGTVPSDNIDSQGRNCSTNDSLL

**Q.** Which “β2 Int Act” value (Adrenergic β2) does the source give for O=C1COc2c(CCNCCN(C(=O)CCOCCc3ccccc3F)C3CCCCC3)ccc(O)c2N1 [Example 76, N-Cyclohexyl-3-(2-fluorophenethoxy)-N-(2-(2-(5-hydroxy-3-oxo-3,4-dihydro-2H-benzo[b][1,4]oxazin-8-yl)ethylamino)ethyl)propanamide trifluoroacetate] here?
**A.** The value was 1.1.

**Q.** What about the EC50 (Adrenergic β2) of the same compound?
**A.** The EC50 was 0.00158 µM.

**Q.** What about the IC50 [1] of the same compound?
**A.** Its IC50 is 2 µM.

**Q.** Which results are given for O=C1COc2c(CCNCCN(C(=O)CCOCCc3cccc(Cl)c3)C3CCCCC3)ccc(O)c2N1 [Example 77, 3-(3-Chlorophenethoxy)-N-cyclohexyl-N-(2-(2-(5-hydroxy-3-oxo-3,4-dihydro-2H-benzo[b][1,4]oxazin-8-yl)ethylamino)ethyl)propanamide trifluoroacetate]?
**A.** β2 Int Act (Adrenergic β2): 0.97; EC50 (Adrenergic β2): 0.002 µM; IC50 [1]: 3.16 µM

**Q.** Which “β2 Int Act” value (Adrenergic β2) does the source give for CC[C@@H](C)N(CCNCCc1ccc(O)c2[nH]c(=O)ccc12)C(=O)CCOCCc1ccccc1.Cl [Example 79, (R)—N-sec-Butyl-N-(2-(2-(8-hydroxy-2-oxo-1,2-dihydroquinolin-5-yl)ethylamino)ethyl)-3-phenethoxypropanamide hydrochloride] here?
**A.** The value was 0.92.

**Q.** And the EC50 (Adrenergic β2)?
**A.** The EC50 was 0.0501 µM.

**Q.** What about the IC50 [1] of the same compound?
**A.** The IC50 was over 10 µM.

**Q.** What does the source list for CC(C)[C@@H](C)N(CCNCCc1ccc(O)c2[nH]c(=O)ccc12)C(=O)CCOCCc1ccccc1.Cl [Example 80, (R)—N-(2-(2-(8-Hydroxy-2-oxo-1,2-dihydroquinolin-5-yl)ethylamino)ethyl)-N-(3-methylbutan-2-yl)-3-phenethoxypropanamide hydrochloride]?
**A.** β2 Int Act (Adrenergic β2): 1.04; EC50 (Adrenergic β2): 0.0251 µM; IC50 [1]: > 10 µM
